Common to all, as to assay: Minimum Inhibitory Concentration (MIC), agar dilution, standard strains
The test system of experiment [1] is S. epidermidis R005. Format: cell-based. Particulars: for MIC: Staphylococcus epidermidis, read-out: Minimum Inhibitory Concentration, S. epidermidis R005.
Experiment [2] deals with E. faecalis EFS004. It counts as cell-based. The conditions noted are these: for MIC: Enterococcus faecalis, read-out: Minimum Inhibitory Concentration, E. faecalis EFS004.
Experiment [3] concerns Staphylococcus aureus giorgio. It counts as cell-based. Particulars: for MIC: Staphylococcus aureus, read-out: Minimum Inhibitory Concentration, Staphylococcus aureus giorgio.
Experiment [4] concerns S. aureus 77. It counts as cell-based, Staphylococcus aureus. Particulars: for MIC: read-out: Minimum Inhibitory Concentration, S. aureus 77.
In experiment [5] the test system is S. aureus K311. Format: cell-based, Staphylococcus aureus. Particulars: for MIC: Staphylococcus aureus, read-out: Minimum Inhibitory Concentration, S. aureus K311.
Experiment [6] has as its system E. faecalis L239. It counts as cell-based. The conditions noted are these: Enterococcus faecalis, L239, 20 h, read-out: Minimum Inhibitory Concentration, E. faecalis L239.
Experiment [7] relates to S. aureus 241. It counts as cell-based, Staphylococcus aureus. The conditions noted are these: Staphylococcus aureus, 241, 20 h, read-out: Minimum Inhibitory Concentration, S. aureus 241.
[8] abbreviates: Table 2, Mueller-Hinton agar, 37° C., 20 hours.

Values after ≈ are worked out from the molar mass of the structure shown. Like-named read-outs stand apart in the source and are kept apart here.

The record followed here is patent US20030162762A1, “Novel cephalosporin compounds and process for preparing the same” (priority 2000, published 2003).

As to `O=C(CSc1cc(Cl)nc(Cl)c1)N[C@@H]1C(=O)N2C(C(=O)O)=C(/C=C/CSc3nc(O)cc(NCCO)n3)CS[C@H]12` [Compound I-15, (6R,7R)-7-({2-[(2,6-dichloro-4-pyridinyl)sulfanyl]acetyl}amino)-3-[(E)-3-({4-hydroxy-6-[(2-hydroxyethyl)amino]-2-pyrimidinyl]sulfanyl}-1-propenyl]-8-oxo-5-thia-1-azabicyclo[4.2.0]oct-2-ene-2-carboxylic acid], the MIC amounted to 0.5 µg/mL (≈ 0.775 µM) in experiment [1] (R005, Table 2, Mueller-Hinton agar, 37° C., 20 hours); 1 µg/mL (≈ 1.55 µM) in experiment [2] (EFS004, Table 2, Mueller-Hinton agar, 37° C., 20 hours); 0.031 µg/mL (≈ 0.048 µM) in experiment [3] (setting [8]); 0.5 µg/mL (≈ 0.775 µM) in experiment [4] (Staphylococcus aureus, 77, Table 2, Mueller-Hinton agar, 37° C., 20 hours); 0.5 µg/mL (≈ 0.775 µM) in experiment [5] (K311, Table 2, Mueller-Hinton agar, 37° C., 20 hours).
As for `CC[n+]1c(N)cc(N)nc1SC/C=C/C1=C(C(=O)O)N2C(=O)[C@@H](NC(=O)CSc3cc(Cl)nc(Cl)c3)[C@H]2SC1` [Compound I-16, 4,6-diamino-2-({(E)-3-[(6R,7R)-2-carboxy-7-({2-[(2,6-dichloro-4-pyridinyl)sulfanyl]acetyl}amino)-8-oxo-5-thia-1-azabicyclo[4.2.0]oct-2-en-3-yl]-2-propenyl}sulfanyl)-1-ethylpyrimidin-1-ium], in experiment [1] (setting [8]), the “Minimum Inhibitory Concentration, S. epidermidis R005” value came to 0.13 µg/mL. Besides, the “Minimum Inhibitory Concentration, E. faecalis EFS004” value in experiment [2] (setting [8]) came to 0.5 µg/mL. Also, in experiment [3] (setting [8]), the “Minimum Inhibitory Concentration, Staphylococcus aureus giorgio” value is <0.008 µg/mL. For the same compound, in experiment [4] (setting [8]), the “Minimum Inhibitory Concentration, S. aureus 77” value came to 0.13 µg/mL. The “Minimum Inhibitory Concentration, S. aureus K311” value in experiment [5] (setting [8]) came out at 0.5 µg/mL.
As for `Nc1nc(SC/C=C/C2=C(C(=O)O)N3C(=O)[C@@H](NC(=O)CSc4cc(Cl)nc(Cl)c4)[C@H]3SC2)c2c([n+]1N)CCC2` [Compound I-17, 1,2-diamino-4-({(E)-3-[(6R,7R)-2-carboxy-7-({2-[(2,6-dichloro-4-pyridinyl)sulfanyl]acetyl}amino)-8-oxo-5-thia-1-azabicyclo[4.2.0]oct-2-en-3-yl]-2-propenyl}sulfanyl)-6,7-dihydro-5H-cyclopenta[d]pyrimidin-1-ium], the “Minimum Inhibitory Concentration, S. epidermidis R005” value in experiment [1] (setting [8]) was determined as 0.25 µg/mL. Besides, the “Minimum Inhibitory Concentration, E. faecalis EFS004” value in experiment [2] (setting [8]) was determined as 0.5 µg/mL. Besides, the “Minimum Inhibitory Concentration, Staphylococcus aureus giorgio” value in experiment [3] (setting [8]) is <0.008 µg/mL. Further, the “Minimum Inhibitory Concentration, S. aureus 77” value in experiment [4] (setting [8]) was 0.25 µg/mL. The “Minimum Inhibitory Concentration, S. aureus K311” value in experiment [5] (setting [8]) amounted to 0.5 µg/mL.
Take `Nc1cc(N)[n+](C/C=C/C2=C(C(=O)O)N3C(=O)[C@@H](NC(=O)CSc4cc(Cl)nc(Cl)c4)[C@H]3SC2)cn1` [Compound I-18]: the “Minimum Inhibitory Concentration, S. epidermidis R005” value in experiment [1] (setting [8]) was 0.25 µg/mL. The “Minimum Inhibitory Concentration, E. faecalis EFS004” value in experiment [2] (setting [8]) came to 1 µg/mL. Besides, in experiment [3] (setting [8]), the “Minimum Inhibitory Concentration, Staphylococcus aureus giorgio” value came out at 0.016 µg/mL. Besides, the “Minimum Inhibitory Concentration, S. aureus 77” value in experiment [4] (setting [8]) turned out to be 0.25 µg/mL. In addition, in experiment [5] (setting [8]), the “Minimum Inhibitory Concentration, S. aureus K311” value was found to be 1 µg/mL.
In the case of `CN[C@H](CC(C)C)C(=O)N[C@H]1C(=O)N[C@@H](CC(N)=O)C(=O)N[C@H]2C(=O)N[C@H]3C(=O)N[C@H](C(=O)N[C@H](C(=O)O)c4cc(O)cc(O)c4-c4cc3ccc4O)[C@H](O)c3ccc(c(Cl)c3)Oc3cc2cc(c3O[C@@H]2O[C@H](CO)[C@@H](O)[C@H](O)[C@H]2O[C@H]2C[C@](C)(N)[C@H](O)[C@H](C)O2)Oc2ccc(cc2Cl)[C@H]1O` [Vancomycin, vancomycin, reference compound], the MIC in experiment [1] (R005, 20 h) stood at 1 µg/mL (≈ 0.69 µM); in experiment [6] it was 2 µg/mL (≈ 1.38 µM); in experiment [2] (EFS004, 20 h), 2 µg/mL (≈ 1.38 µM); in experiment [3] (20 h), 1 µg/mL (≈ 0.69 µM); in experiment [4] (Staphylococcus aureus, 77, 20 h) it was 1 µg/mL (≈ 0.69 µM); in experiment [7] it was 2 µg/mL (≈ 1.38 µM). Also, the MIC in experiment [5] (K311, 20 h) is 2 µg/mL (≈ 1.38 µM). In addition, the “Minimum Inhibitory Concentration, S. epidermidis R005” value in experiment [1] (setting [8]) amounted to 1 µg/mL. For the same compound, the “Minimum Inhibitory Concentration, Staphylococcus aureus giorgio” value in experiment [3] (setting [8]) stood at 1 µg/mL. Besides, the “Minimum Inhibitory Concentration, S. aureus 77” value in experiment [4] (setting [8]) worked out at 1 µg/mL.
